Test results taken from patent US8048926B2, “L-DOPA amide derivatives and uses thereof” (Yissum Research Development Company of the Hebrew …, priority 2003, dated 2011).
Several values for one entry are separate records, joined by “and”; a condition that tells them apart may be missing. Equal entries are not always repeated.

How the values were obtained:
DOPA decarboxylase = molecular target: T1, DOPA decarboxylase (Mus musculus, UniProt O88533); experiment: DOPA-decarboxylase assay (substrate test); assay type: biochemical; parameters: activity of DOPA decarboxylase with the substance as substrate: unit not given here; conditions: mouse striatum enzyme
T1 construct: using the mouse striatum as a source of the decarboxylase enzyme; from tissue; host or cells: mouse striatum
T1 sequence (O88533 1-480): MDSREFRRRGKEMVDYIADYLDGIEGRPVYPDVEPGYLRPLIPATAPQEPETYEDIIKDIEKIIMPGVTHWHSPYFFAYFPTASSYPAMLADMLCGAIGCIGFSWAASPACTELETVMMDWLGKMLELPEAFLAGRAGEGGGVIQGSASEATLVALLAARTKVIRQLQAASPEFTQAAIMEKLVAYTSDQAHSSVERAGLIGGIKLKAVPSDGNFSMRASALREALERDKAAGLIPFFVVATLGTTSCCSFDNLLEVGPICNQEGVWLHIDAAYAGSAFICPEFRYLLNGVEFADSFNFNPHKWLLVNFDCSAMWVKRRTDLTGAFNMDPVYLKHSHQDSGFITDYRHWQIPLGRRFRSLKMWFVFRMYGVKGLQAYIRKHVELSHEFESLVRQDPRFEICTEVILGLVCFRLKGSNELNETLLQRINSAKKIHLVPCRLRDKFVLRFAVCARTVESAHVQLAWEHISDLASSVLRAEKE
Experimental: DOPA-decarboxylase assay: As discussed hereinabove, one of the limitations associated with treatment with L-DOPA is its decarboxylation in the periphery by a DOPA decarboxylase, which reduces the amount the amount of L-DOPA that crosses the BBB.
The assay was carried out according to Hadjiconstantinou et al. [Aromatic L-amino acid decarboxylase activity of mouse striatum is modulated via dopamine receptors. J Neurochem. 1993 June; 60(6):2175-80], using the mouse striatum as a source of the decarboxylase enzyme.
The activity of the DOPA decarboxylase was thus tested with L-DOPA, DOPA-ethyl ester and LDA. L-DOPA ethyl ester (Compound 1), known as a much poorer substrate of the decarboxylase, served as a control was used as a control in these assays.

[1] = cited from earlier work
[2] = cited from earlier work; remark: listed apart in the source
[3] = system: unilaterally 6-hydroxydopamine-lesioned male rats; experiment: Rotation experiments (rotometer), LDA administered intravenously; assay type: in vivo, rat; conditions: for CCW (counter clockwise rotations) / CW (clockwise rotations) / CW − CCW: carbidopa 4 mg/kg ip 15 minutes before, one line per rat, preliminary
Experimental: (§1) The in vivo activity of LDA administered intravenously (iv) and intraperitoneally (ip) was evaluated using rotations experiments, conducted and based in accordance with published studies, as follows:
(§2) Briefly, Dunnet's experiment uses PD induced animal models which are treated with a unilateral lesion to the brain that effects their motorial behavior. In case of rats, they turn away from the side of the lesion when treated with an agent which increases the dopamine brain level. In order to quantify this effect, a device called rotometer is used, which records the circling behavior of the tested rat by counting the number of clockwise (CW) and counter clockwise (CCW) rotations the animal is turning in a hemisphere-shaped bowl which encourages a circling behavior.
(§3) Thus, twenty unilaterally 2,4,5-trihydroxyphenethylamine (6-hydroxydopamine)-lesioned male rats, weighing about 300 grams (obtained from Harlan, Rehovoth Israel) were treated with LDA and carbidopa, as is detailed hereinbelow. […] Pharmacol Toxicol. 93(2):66-70].
(§4) Treatment was performed by intravenously or intraperitoneally administering the LDA.
Intravenous (iv) Experiments: Rats were intravenously injected with 24 mg/kg or 40 mg/kg LDA. All rats received 4 mg/kg carbidopa, intraperitoneally, 15 minutes before LDA administration.

[4] = system: unilaterally 6-hydroxydopamine-lesioned male rats; experiment: Rotation experiments (rotometer), LDA administered intraperitoneally; assay type: in vivo, rat
Experimental: as §1, §2, §3, §4
Intraperitoneal Experiments: Four rats were treated with 6-hydroxydopamine (8 μg/rat). Rats were then administered with carbidopa (4 mg/kg i.p), and 15 minutes thereafter with 15 mg/kg LDA, administered intraperitoneally. Immediately after LDA injection the rotometer was activated and the rats were monitored during 3 hours.

[5] = LDA 15 mg/kg ip, carbidopa 4 mg/kg ip 15 minutes before, monitored during 3 hours, one line per rat, preliminary

activity of DOPA decarboxylase with the substance as substrate (DOPA decarboxylase; Substrate 50 micromoles)	activity of DOPA decarboxylase with the substance as substrate (DOPA decarboxylase; Substrate 100 micromoles)	activity of DOPA decarboxylase with the substance as substrate (DOPA decarboxylase; Substrate 150 micromoles)	activity of DOPA decarboxylase with the substance as substrate (DOPA decarboxylase; Substrate 250 micromoles)	activity of DOPA decarboxylase with the substance as substrate (DOPA decarboxylase; Substrate 500 micromoles)	activity of DOPA decarboxylase with the substance as substrate (DOPA decarboxylase; Substrate 1000 micromoles)	substrate of DOPA decarboxylase, in words (DOPA decarboxylase)	Compound	water solubility [2]	also measured
227	278	328	371	357	350	poor substrate	CCOC(=O)[C@@H](N)Cc1ccc(O)c(O)c1 [Compound 1, L-DOPA ethyl ester]	highly water-soluble	hydrolysis to L-DOPA before reaching the brain ([1]; in vivo): fast hydrolysis
3241	3839	3828	4332	4612	3933	–	N[C@@H](Cc1ccc(O)c(O)c1)C(=O)O [L-DOPA, 3,4-dihydroxy-L-phenylalanine]	poor water solubility	share of administered levodopa that enters the brain unaltered ([1]; peripheral administration): 1-3%
–	–	–	–	–	–	–	NC(=O)[C@@H](N)Cc1ccc(O)c(O)c1 [LDA + Carbidopa]	–	CCW (counter clockwise rotations) ([3]; LDA 24 mg/kg iv): 128 and 134; CW (clockwise rotations) ([3]; LDA 24 mg/kg iv): 686 and 629; CW − CCW ([3]; LDA 24 mg/kg iv): 558 and 495; CCW (counter clockwise rotations) ([3]; LDA 40 mg/kg iv): 724 and 14 and 59; CW (clockwise rotations) ([3]; LDA 40 mg/kg iv): 1563 and 970 and 573; CW − CCW ([3]; LDA 40 mg/kg iv): 839 and 956 and 514; CCW (counter clockwise rotations) [4, 5]: 22 and 50 and 74 and 109; CW (clockwise rotations) [4, 5]: 56 and 361 and 123 and 111; CW − CCW [4, 5]: 34 and 311 and 49 and 2
–	–	–	–	–	–	not a substrate	NC(=O)C(N)Cc1ccc(O)c(O)c1 (stereo not drawn) [LDA, α-amino-3,4-dihydroxy-benzenepropanamide]	–	effect of co-administration of carbidopa on the activity of LDA ([3]; increasing relative amount of carbidopa with respect to LDA): positively affect the activity of LDA; duration of the rotation effect ([3]; intravenous LDA together with carbidopa, data not shown): more than 2 hours; improving the behavior of lesioned animals ([4]; LDA administered intraperitoneally): highly active; activity of the enzyme (formation of dopamine) with the substance as substrate, in words (DOPA decarboxylase; assay performed twice): No activity of the enzyme was detected
